Experimental data reported in publication PMC7312527 (International Journal of Molecular Sciences, 2020).

Target: T1, AChE–BACE-1A protein pair (Homo sapiens, UniProt P22303+P56817)
T1 construct: pGBKT7-hAChE plasmid contained the cDNA fragment encoding for aa 52–577; N-terminal domain (aa 46–457) of BACE1A (GenBank: AF204943.1); host or cells: Saccharomyces cerevisiae Y2HGold (bait) mated with Y187 (prey)
Assay: Yeast three-hybrid (Y3H) test and β-galactosidase assay, AChE–BACE-1A
Assay type: cell-based
Procedure: The putative induction of interactions between hybrid ligands and five selected proteins was evaluated by the Y3H method. […]. The company maintained cDNA synthesis and cloning of inserts in a proper frame, such as the NdeI/BamHI fragments into the pGBKT7 (AChE) or pGADT7 (A4, BACE1A, MAO B, MAPT) vectors. Moreover, the yeast codon optimization was realized to facilitate the high expression of human recombinant proteins in Saccharomyces cerevisiae. The cDNA encoding for human AChE (GenBank M55040.1) was modified by removing the fragments for a signal peptide (aa 1–51) and the domain responsible for protein tetramerization (aa 578–611). […]
The putative protein–protein interactions between bait (AChE) and the four preys (A4, BACE1A, MAO B, and MAPT) were analyzed by the small-scale mating procedure (5mL) based on the Matchmaker Gold yeast two-hybrid system manual recommendations. […]
The yeast β-galactosidase assay kit (ThermoFisher Scientific, USA) was applied to quantitatively analyze the strength of the hybrid-ligand induced interactions.
To evaluate the β-galactosidase activity in the yeast culture, the yeast β-galactosidase microplate assay protocol (stopped) was used according to the manufacturer’s instructions. […] The optical densities at 660 nm and absorbance at 420 nm were evaluated by (Synergy H1, Biotek). In the quantitative β-galactosidase assay, the hybrid ligand 3c was used. […]

T1 sequence (P22303 52-577): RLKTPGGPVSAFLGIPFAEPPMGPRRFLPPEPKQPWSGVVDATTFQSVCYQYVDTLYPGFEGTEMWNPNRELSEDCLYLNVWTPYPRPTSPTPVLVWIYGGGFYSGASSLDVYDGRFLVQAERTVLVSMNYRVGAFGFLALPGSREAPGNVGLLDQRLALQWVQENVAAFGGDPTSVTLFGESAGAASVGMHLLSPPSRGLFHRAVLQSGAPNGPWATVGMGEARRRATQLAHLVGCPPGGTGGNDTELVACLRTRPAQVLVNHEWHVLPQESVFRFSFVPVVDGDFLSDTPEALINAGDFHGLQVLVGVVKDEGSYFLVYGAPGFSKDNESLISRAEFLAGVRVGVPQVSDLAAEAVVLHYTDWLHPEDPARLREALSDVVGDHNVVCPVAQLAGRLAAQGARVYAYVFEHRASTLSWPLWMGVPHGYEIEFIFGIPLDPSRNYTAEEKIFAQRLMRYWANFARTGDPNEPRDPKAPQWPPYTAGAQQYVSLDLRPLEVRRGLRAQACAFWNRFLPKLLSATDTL
T1 sequence (P56817 46-457): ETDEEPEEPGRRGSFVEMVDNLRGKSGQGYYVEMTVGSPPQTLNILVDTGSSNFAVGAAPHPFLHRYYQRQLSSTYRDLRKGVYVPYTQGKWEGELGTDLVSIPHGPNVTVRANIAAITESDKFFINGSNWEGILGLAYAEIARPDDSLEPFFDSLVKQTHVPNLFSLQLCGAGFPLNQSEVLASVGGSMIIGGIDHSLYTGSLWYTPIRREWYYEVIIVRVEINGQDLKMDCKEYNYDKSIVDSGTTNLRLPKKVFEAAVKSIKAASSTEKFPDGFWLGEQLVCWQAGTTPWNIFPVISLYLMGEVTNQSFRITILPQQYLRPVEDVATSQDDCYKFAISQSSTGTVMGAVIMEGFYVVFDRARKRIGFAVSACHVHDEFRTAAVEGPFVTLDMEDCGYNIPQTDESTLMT

With O=C(NCCCCNc1c2c(nc3ccccc13)CCCC2)c1cc(Cl)cc(Cl)c1 [Compound 3c] as the compound, how does the “hybrid ligand-mediated interaction AChE–BACE-1A (colonies on DDO/X/A plates)” value (10 µM hybrid ligand) read?
Its value is “interaction between AChE and BACE-1 is mediated by hybrid ligand 3c”.

What about the “activity of β-galactosidase” value (AChE–BACE-1A, 10 μM ligand, yeast grown 96 h) of the same compound?
Its value is 88.69 ± 2.57 units.
